According to patent publication US6239171A, “Tocotrienols and tocotrienol-like compounds and methods for their use” (Lipogenics, Inc., priority 1998, dated 2001):

What was measured:
chickens [1] = assay: Serum cholesterol, apolipoproteins, triglycerides and glucose in chickens fed supplemented diets; type: in vivo, chicken; settings: 4 weeks
Text: All assays conducted on chicken or swine serum were done following the protocols described in A. A. Qureshi et al., "Lowering Of Serum Cholesterol In Hypercholesterolemic Humans By Tocotrienols" (Palmvitee), Am. J. Clin. Nutr., 53, pp. 1021S-26S (1991). All enzymatic assays were done following the protocols described in A. A. Qureshi et al., "Effects of Cereals and Culture Filtrate of Trichoderma viride on Lipid Metabolism of Swine", Lipids, 17, pp. 924 (1982). Plasma insulin, glucagon and TNF levels were measured using radioinnumoassay kits from Ventrex Laboratories, Inc. (Portland, Me.), ICN Biomedicals, Inc. (Costa Mesa, Calif.) and Genzyme Corp. (Cambridge, Mass.), respectively. […]
Each group of 6 chickens (6-week old female while leghorn) was administered the chick mash diet described in Example 5, supplemented with one of three different amounts of waxes (sterols), 50 ppm of TRF (prepared as in Example 2) or 5% equivalent of the methanol insoluble fraction Louisiana rice bran oil. […] The birds were fasted for a period of 14 hours prior to sacrifice (at 0800 hours). […]

[2] = test system: cholesterol 7α-hydroxylase; assay: Hepatic cholesterol 7α-hydroxylase activity in chickens fed supplemented diets; type: in vivo, chicken; settings: 4 weeks
Protocol: (§3) This example measured the effects of the TRF and its components on the hepatic enzymatic activity of HMG-CoA reductase and cholesterol 7α-hydroxylase. […] The amount of feed consumed ranged from 11.19-11.60 g per chicken and the feeding period was 4 weeks. The birds were fasted for a period of 36 hours and refed for 48 hours prior to sacrifice (at 0800 hours).

chickens [3] = assay: Plasma thromboxane B2 and platelet factor 4 in chickens fed supplemented diets; type: in vivo, chicken; settings: 4 weeks
Text: We next measured the effects of TRF and its components on serum levels of apolipoprotein (a)1, apolipoprotein B, triglycerides and glucose and the plasma levels of thromboxane B2 and platelet factor 4.

chickens [4] = assay: Antibody titers to sheep red blood cells in chickens; type: in vivo, chicken; settings: 4 weeks, sheep red blood cells i.p.
Protocol: The model for this study was 6-week old female white leghorn chickens. Each group of 12 chickens was fed an unsupplemented chicken diet or a control diet supplemented with 50 ppm of a tocotrienol or 100 ppm of a commercially available hypercholesterolemic agent (Geraniol or Lovastatin). […] The chickens were fed over a period of 4 weeks, then the blood was drawn. The antibody response was determined by injecting the chickens i.p. with 0.5 ml of a 5% suspension of sheep red blood cells (RBCs) in PBS (v/v) which were previously washed three times. […] Relative IgG levels were determined by using 2-mercaptoethanol preincubation for 30 min. The relative IgM levels were calculated by subtracting the IgG antibody levels from total antibody levels. All antibody levels are expressed as the log base 2 of the highest titer that was needed to hemagglutinate an equal volume of 0.5% RBC suspension.

HMG-CoA reductase [5] = target: T1, HMG-CoA reductase (Homo sapiens, UniProt P04035); assay: Hepatic HMG-CoA reductase activity in chickens fed supplemented diets; type: in vivo, chicken; settings: control diet + 50 ppm, 4 weeks
T1 construct: hepatocytes isolated from livers of 8-week old female chickens; endogenous in cells; host or cells: primary chicken hepatocytes
T1 sequence (P04035 1-888): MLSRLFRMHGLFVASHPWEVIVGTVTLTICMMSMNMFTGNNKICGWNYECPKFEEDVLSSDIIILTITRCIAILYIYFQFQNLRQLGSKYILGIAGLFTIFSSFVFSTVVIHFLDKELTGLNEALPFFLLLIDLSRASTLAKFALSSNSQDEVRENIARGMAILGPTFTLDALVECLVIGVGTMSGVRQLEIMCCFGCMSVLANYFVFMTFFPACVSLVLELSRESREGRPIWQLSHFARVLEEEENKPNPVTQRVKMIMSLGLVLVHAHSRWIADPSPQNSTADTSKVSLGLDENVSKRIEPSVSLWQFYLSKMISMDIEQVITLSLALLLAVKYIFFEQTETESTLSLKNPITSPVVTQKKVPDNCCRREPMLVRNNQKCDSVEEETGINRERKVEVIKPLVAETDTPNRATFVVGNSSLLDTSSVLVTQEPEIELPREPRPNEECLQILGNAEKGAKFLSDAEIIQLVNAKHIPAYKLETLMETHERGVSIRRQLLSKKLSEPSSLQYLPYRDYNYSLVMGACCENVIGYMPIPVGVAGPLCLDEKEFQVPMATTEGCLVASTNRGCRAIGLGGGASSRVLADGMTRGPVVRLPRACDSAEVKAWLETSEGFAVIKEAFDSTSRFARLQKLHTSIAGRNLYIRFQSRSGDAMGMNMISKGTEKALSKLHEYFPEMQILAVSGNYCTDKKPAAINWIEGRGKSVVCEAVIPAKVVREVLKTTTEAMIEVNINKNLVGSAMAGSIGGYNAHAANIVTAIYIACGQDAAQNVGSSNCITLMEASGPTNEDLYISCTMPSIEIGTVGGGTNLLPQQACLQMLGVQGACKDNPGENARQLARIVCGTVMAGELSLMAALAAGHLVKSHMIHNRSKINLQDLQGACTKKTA
Protocol: as §3

HMG-CoA reductase [6] = target: T1, HMG-CoA reductase; assay: HMG-CoA reductase activity in isolated chicken hepatocytes; type: cell-based
Protocol: (§1) This study measured the effects of three tocotrienols isolated from rice bran on cholesterol-related enzyme activity in hepatocytes isolated from livers of 8-week old female chickens. The chickens were fed the chick mash diet for 8 weeks. They were then fasted for 40 hours and finally refed for 48 hours before sacrifice. The hepatocytes were then prepared following standard methods.
(§2) Each compound was isolated from TRF using the following protocol: A bond Elute amine column was equilibrated with 2 ml hexane. 10 mg of TRF (dissolved in 0.5 ml hexane) was bound to the amine column. The column was washed with 1 ml of hexane, then with 1 ml of 3% isopropanol in hexane. P-21 and P-25 were eluted off the column with 5% isopropanol in hexane. Then using 10% isopropanol in hexane, the impurity P-20 was eluted. α-tocotrienol was also tested.
We next measured the effects of various tocotrienols and tocotrienol-like compounds isolated from rice bran on the activity of HMG-CoA reductase. 20.0 g of stabilized rice bran was extracted with 200.0 ml of methanol to remove various UV absorbing impurities and tocotrienols (6.7 mg total). This step was repeated four times. The remaining residue was dried under vacuum in a desiccator and then heated at 180° C. for 2 hours under 30 psi pressure. Then the dried residue was extracted again with 200.0 ml methanol (3.4 mg). […]

Fatty Acid Synthase = target: T2, Fatty Acid Synthase (Gallus gallus, UniProt P12276); assay: Fatty acid synthase activity in isolated chicken hepatocytes; type: cell-based
T2 construct: hepatocytes isolated from livers of 8-week old female chickens; endogenous in cells; host or cells: primary chicken hepatocytes
Protocol: as §1, §2

[7] = test system: cholesterol 7α-hydroxylase; assay: Cholesterol 7α-hydroxylase activity in isolated chicken hepatocytes; type: cell-based
Protocol: as §1, §2

T2 sequence (P12276 2-2512 limits assumed): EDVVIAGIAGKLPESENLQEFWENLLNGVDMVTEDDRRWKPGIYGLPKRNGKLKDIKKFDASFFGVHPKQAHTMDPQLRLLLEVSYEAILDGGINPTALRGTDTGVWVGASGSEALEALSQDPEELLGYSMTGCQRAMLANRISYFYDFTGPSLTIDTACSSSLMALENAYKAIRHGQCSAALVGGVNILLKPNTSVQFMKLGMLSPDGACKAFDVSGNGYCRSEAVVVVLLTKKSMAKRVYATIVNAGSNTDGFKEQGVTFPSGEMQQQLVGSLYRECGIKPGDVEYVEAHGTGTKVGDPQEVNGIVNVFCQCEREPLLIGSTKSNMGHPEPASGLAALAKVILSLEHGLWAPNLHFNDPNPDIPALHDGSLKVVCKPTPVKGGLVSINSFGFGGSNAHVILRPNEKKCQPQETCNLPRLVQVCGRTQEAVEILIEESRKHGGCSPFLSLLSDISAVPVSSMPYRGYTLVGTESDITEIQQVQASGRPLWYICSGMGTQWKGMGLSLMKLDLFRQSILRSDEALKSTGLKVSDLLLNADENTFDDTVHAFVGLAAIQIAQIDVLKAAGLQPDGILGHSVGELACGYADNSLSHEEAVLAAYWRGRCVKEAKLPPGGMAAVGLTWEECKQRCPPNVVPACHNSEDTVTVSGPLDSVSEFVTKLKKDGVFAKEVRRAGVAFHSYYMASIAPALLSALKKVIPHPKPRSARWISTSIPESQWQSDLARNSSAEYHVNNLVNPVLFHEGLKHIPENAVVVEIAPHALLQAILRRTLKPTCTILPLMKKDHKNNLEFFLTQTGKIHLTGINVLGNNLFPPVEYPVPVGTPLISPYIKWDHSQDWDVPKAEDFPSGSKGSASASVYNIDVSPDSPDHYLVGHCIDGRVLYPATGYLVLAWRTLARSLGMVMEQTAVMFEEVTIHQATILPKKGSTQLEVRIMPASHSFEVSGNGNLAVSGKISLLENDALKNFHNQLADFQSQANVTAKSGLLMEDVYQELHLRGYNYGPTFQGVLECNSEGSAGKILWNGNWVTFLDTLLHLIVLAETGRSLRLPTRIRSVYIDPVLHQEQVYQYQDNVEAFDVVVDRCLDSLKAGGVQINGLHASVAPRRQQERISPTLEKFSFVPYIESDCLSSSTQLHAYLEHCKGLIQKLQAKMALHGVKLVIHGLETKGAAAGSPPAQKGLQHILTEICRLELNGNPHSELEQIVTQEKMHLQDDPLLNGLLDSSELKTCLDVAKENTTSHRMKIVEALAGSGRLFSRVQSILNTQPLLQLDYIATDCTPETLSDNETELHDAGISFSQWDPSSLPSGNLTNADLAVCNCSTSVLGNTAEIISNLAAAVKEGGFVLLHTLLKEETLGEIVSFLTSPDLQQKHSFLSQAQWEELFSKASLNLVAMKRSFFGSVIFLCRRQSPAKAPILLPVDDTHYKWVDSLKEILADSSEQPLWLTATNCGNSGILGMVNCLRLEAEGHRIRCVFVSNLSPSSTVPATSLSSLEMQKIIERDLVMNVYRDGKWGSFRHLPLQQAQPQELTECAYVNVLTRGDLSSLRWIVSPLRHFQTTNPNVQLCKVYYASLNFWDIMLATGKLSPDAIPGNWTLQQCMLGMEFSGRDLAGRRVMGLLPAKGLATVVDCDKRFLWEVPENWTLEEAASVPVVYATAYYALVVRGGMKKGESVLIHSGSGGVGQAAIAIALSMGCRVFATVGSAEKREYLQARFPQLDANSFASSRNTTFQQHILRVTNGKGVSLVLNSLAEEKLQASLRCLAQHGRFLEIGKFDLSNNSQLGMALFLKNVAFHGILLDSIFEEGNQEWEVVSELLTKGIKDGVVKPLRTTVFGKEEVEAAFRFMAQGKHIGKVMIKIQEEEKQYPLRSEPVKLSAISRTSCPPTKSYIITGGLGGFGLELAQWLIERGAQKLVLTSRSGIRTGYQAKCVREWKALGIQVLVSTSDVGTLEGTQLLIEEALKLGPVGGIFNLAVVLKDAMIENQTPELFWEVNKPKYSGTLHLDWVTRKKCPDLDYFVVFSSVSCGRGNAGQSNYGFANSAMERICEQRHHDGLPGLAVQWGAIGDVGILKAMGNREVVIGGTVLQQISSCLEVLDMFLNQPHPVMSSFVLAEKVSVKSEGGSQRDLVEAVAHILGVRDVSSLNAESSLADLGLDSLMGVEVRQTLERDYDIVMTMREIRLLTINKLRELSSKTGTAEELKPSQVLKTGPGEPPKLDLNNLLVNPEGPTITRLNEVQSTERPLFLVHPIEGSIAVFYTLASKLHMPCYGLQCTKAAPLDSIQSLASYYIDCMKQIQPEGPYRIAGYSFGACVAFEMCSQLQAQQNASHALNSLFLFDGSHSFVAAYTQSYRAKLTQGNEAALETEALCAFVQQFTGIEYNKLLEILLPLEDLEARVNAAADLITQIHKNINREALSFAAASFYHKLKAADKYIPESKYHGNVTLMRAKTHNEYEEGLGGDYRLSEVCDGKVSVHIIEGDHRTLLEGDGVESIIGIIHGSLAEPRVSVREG

`CC[C@H](C)C(=O)O[C@H]1C[C@@H](C)C=C2C=C[C@H](C)[C@H](CC[C@@H]3C[C@@H](O)CC(=O)O3)[C@H]21` [Lovastatin] was tested, and the “increase in the HDL-/LDL-cholesterol ratio” value (chickens [1]; 100 ppm in diet) was at most 31.5%, the “reduction of serum cholesterol” value (chickens [1]; 100 ppm in diet) was 10% and the “APO A1, percentage of control” value (chickens [1]; control diet + 100 ppm) was 99.29%. The “APO A1 in serum” value (chickens [1]; control diet + 100 ppm) was 139.9 mg/100 ml, the “APO B in serum” value (chickens [1]; control diet + 100 ppm) was 25.80 mg/100 ml and the “APO B, percentage of control” value (chickens [1]; control diet + 100 ppm) was 77.95%. For the same compound, the “DL-Cholesterol/Total Cholesterol” value (chickens [1]; control diet + 100 ppm) was 0.63, the “DL-Cholesterol/Total Cholesterol, percentage of control” value (chickens [1]; control diet + 100 ppm) was 108.00% and the Glucose in serum (chickens [1]; control diet + 100 ppm) was 220.10 mg/100 ml. For the same compound, the “Glucose, percentage of control” value (chickens [1]; control diet + 100 ppm) was 98.13%, the HDL-Cholesterol in serum (chickens [1]; control diet + 100 ppm) was 81.38 ± 0.73 mg/dL and the “HDL-Cholesterol, percentage of control” value (chickens [1]; control diet + 100 ppm) was 97.28%. For the same compound, the HDL-Cholesterol/LDL-Cholesterol (chickens [1]; control diet + 100 ppm) was 1.84, the “HDL-Cholesterol/LDL-Cholesterol, percentage of control” value (chickens [1]; control diet + 100 ppm) was 121.40% and the LDL-Cholesterol in serum (chickens [1]; control diet + 100 ppm) was 44.12 ± 1.26 mg/dL. The “LDL-Cholesterol, percentage of control” value (chickens [1]; control diet + 100 ppm) was 86.51%, the “Total Cholesterol in serum” value (chickens [1]; control diet + 100 ppm) was 128.65 ± 1.02 mg/dL and the “Total Cholesterol, percentage of control” value (chickens [1]; control diet + 100 ppm) was 90.11%. The Triglycerides in serum (chickens [1]; control diet + 100 ppm) was 64.04 mg/100 ml, the “Triglycerides, percentage of control” value (chickens [1]; control diet + 100 ppm) was 86.51% and the “Cholesterol 7α-Hydroxylase, percentage of control” value ([2]; control diet + 100 ppm) was 110.96%. The “Cholesterol 7α-hydroxylase” value ([2]; control diet + 100 ppm) was 11.34 nmol/min/mg, the “Platelet Factor 4” value (chickens [3]; control diet + 100 ppm) was 12.24 ng/mL and the “Platelet Factor 4, percentage of control” value (chickens [3]; control diet + 100 ppm) was 93.51%. The “Thromboxane B2” value (chickens [3]; control diet + 100 ppm) was 24.89 pg/mL, the “Thromboxane B2, percentage of control” value (chickens [3]; control diet + 100 ppm) was 96.32% and the “IgG antibody titers in serum” value (chickens [4]; control diet + 100 ppm) was 1.00 ± 0.00 Log 2. For the same compound, the “IgM antibody titers in serum” value (chickens [4]; control diet + 100 ppm) was 5.90 Log 2 and the “Total Ab titers in serum” value (chickens [4]; control diet + 100 ppm) was 6.33 ± 1.44 Log 2.

`CC(C)=CCC/C(C)=C/CC/C(C)=C/CC[C@]1(C)CCc2c(C)c(O)c(C)c(C)c2O1` [α-T3, α-tocotrienol] was tested, and the “APO A1, percentage of control” value (chickens [1]; control diet + 50 ppm) was 99.43%, the “APO A1 in serum” value (chickens [1]; control diet + 50 ppm) was 139.6 mg/100 ml and the “APO B in serum” value (chickens [1]; control diet + 50 ppm) was 29.30 mg/100 ml. For the same compound, the “APO B, percentage of control” value (chickens [1]; control diet + 50 ppm) was 88.52%, the “DL-Cholesterol/Total Cholesterol” value (chickens [1]; control diet + 50 ppm) was 0.61 and the “DL-Cholesterol/Total Cholesterol, percentage of control” value (chickens [1]; control diet + 50 ppm) was 104.30%. For the same compound, the Glucose in serum (chickens [1]; control diet + 50 ppm) was 216.90 mg/100 ml, the “Glucose, percentage of control” value (chickens [1]; control diet + 50 ppm) was 96.70% and the HDL-Cholesterol in serum (chickens [1]; control diet + 50 ppm) was 80.47 ± 0.67 mg/dL. For the same compound, the “HDL-Cholesterol, percentage of control” value (chickens [1]; control diet + 50 ppm) was 96.19%, the HDL-Cholesterol/LDL-Cholesterol (chickens [1]; control diet + 50 ppm) was 2.09 and the “HDL-Cholesterol/LDL-Cholesterol, percentage of control” value (chickens [1]; control diet + 50 ppm) was 110.40%. The LDL-Cholesterol in serum (chickens [1]; control diet + 50 ppm) was 47.97 ± 0.56 mg/dL, the “LDL-Cholesterol, percentage of control” value (chickens [1]; control diet + 50 ppm) was 87.12% and the “Total Cholesterol in serum” value (chickens [1]; control diet + 50 ppm) was 131.71 ± 1.08 mg/dL. The “Total Cholesterol, percentage of control” value (chickens [1]; control diet + 50 ppm) was 92.25%, the Triglycerides in serum (chickens [1]; control diet + 50 ppm) was 68.04 mg/100 ml and the “Triglycerides, percentage of control” value (chickens [1]; control diet + 50 ppm) was 91.91%. The “HMG-CoA Reductase, percentage of control” value (HMG-CoA reductase [5]) was 89.43%, the “Cholesterol 7α-Hydroxylase, percentage of control” value ([2]; control diet + 50 ppm) was 104.60% and the “Cholesterol 7α-hydroxylase” value ([2]; control diet + 50 ppm) was 10.69 nmol/min/mg. The “Platelet Factor 4” value (chickens [3]; control diet + 50 ppm) was 8.78 ng/mL, the “Platelet Factor 4, percentage of control” value (chickens [3]; control diet + 50 ppm) was 67.07% and the “Thromboxane B2” value (chickens [3]; control diet + 50 ppm) was 21.63 pg/mL. The “Thromboxane B2, percentage of control” value (chickens [3]; control diet + 50 ppm) was 83.71%, the “maximum reduction in activity of HMG-CoA reductase” value (HMG-CoA reductase [6]) was 37.7% and the “Fatty Acid Synthase” value (Fatty Acid Synthase; 10.0 μg/mL) was 15.2 nmol/min/mg. The “Fatty Acid Synthase, percentage of 0.0 μg/mL” value (Fatty Acid Synthase; 10.0 μg/mL) was 88.4%, the “Fatty Acid Synthase” value (Fatty Acid Synthase; 20.0 μg/mL) was 14.3 nmol/min/mg and the “Fatty Acid Synthase, percentage of 0.0 μg/mL” value (Fatty Acid Synthase; 20.0 μg/mL) was 83.2%. For the same compound, the “Fatty Acid Synthase” value (Fatty Acid Synthase; 40.0 μg/mL) was 12.4 nmol/min/mg, the “Fatty Acid Synthase, percentage of 0.0 μg/mL” value (Fatty Acid Synthase; 40.0 μg/mL) was 72.1% and the “Cholesterol 7α-hydroxylase” value ([7]; 10.0 μg/mL) was 2.12 pmol/min/mg. For the same compound, the “Cholesterol 7α-hydroxylase, percentage of 0.0 μg/mL” value ([7]; 10.0 μg/mL) was 91.8%, the “Cholesterol 7α-hydroxylase” value ([7]; 20.0 μg/mL) was 2.27 pmol/min/mg and the “Cholesterol 7α-hydroxylase, percentage of 0.0 μg/mL” value ([7]; 20.0 μg/mL) was 98.7%. The “Cholesterol 7α-hydroxylase” value ([7]; 40.0 μg/mL) was 2.34 pmol/min/mg, the “Cholesterol 7α-hydroxylase, percentage of 0.0 μg/mL” value ([7]; 40.0 μg/mL) was 101.3% and the “IgG antibody titers in serum” value (chickens [4]; control diet + 50 ppm) was 1.00 Log 2. For the same compound, the “IgM antibody titers in serum” value (chickens [4]; control diet + 50 ppm) was 6.60 ± 1.24 Log 2 and the “Total Ab titers in serum” value (chickens [4]; control diet + 50 ppm) was 7.10 ± 1.51 Log 2.
